Series [1] can be described thus: Cytotoxicity against human U87 cells assessed as reduction in cell viability after 24 hrs by MTT assay. The following applies: U-87 MG.
The target in series [2] is T1, Cathepsin G (Homo sapiens, UniProt P08311).
T1 sequence (P08311 whole entry): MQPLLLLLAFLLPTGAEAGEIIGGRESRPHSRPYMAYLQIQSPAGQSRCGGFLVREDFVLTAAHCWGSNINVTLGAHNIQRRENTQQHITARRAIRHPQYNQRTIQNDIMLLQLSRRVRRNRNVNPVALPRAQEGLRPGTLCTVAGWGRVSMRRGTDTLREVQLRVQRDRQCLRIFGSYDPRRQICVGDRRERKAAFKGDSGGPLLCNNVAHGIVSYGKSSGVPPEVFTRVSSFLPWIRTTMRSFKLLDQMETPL
Kind of series: Drug metabolism assessed as cathepsin G (unknown origin)-mediated compound hydrolysis after 8 hrs by RP-HPLC analysis. In kind it is ADME.

Series [3] addresses T1, Cathepsin G. Kind of series: Drug metabolism assessed as cathepsin G (unknown origin)-mediated compound hydrolysis after 4 hrs by RP-HPLC analysis. The format is ADME.

For orientation: IC50 means the concentration needed to halve the response being measured.

Regarding `COc1ccc(C2=N[C@H](c3ccc(Cl)cc3)[C@H](c3ccc(Cl)cc3)N2C(=O)N2CCNC(=O)C2)c(OC(C)C)c1`, the IC50 in series [1] was found to be 5.93 µM. Still for that read-out and setting: then `CC(C)C[C@H](NC(=O)[C@H](CC(N)=O)NC(=O)[C@H](Cc1c[nH]c2ccccc12)NC(=O)[C@H](Cc1ccc(O)cc1)NC(=O)[C@H](CCC(=O)O)NC(=O)[C@H](C)NC(=O)[C@H](Cc1ccccc1)NC(=O)[C@H](CO)NC(=O)[C@@H](N)[C@@H](C)O)C(=O)N[C@@H](CC(C)C)C(=O)N[C@H](Cc1ccc(O)cc1)C(=O)N1CCC[C@H]1C(=O)O`, with 30.9 µM. `CC(C)C[C@H](NC(=O)[C@H](CC(N)=O)NC(=O)[C@H](Cc1c[nH]c2ccccc12)NC(=O)[C@H](Cc1ccc(O)cc1)NC(=O)[C@H](CCC(=O)O)NC(=O)[C@H](C)NC(=O)[C@H](Cc1ccccc1)NC(=O)[C@H](CO)NC(=O)[C@@H](N)[C@@H](C)O)C(=O)N[C@@H](CC(C)C)C(=O)N[C@@H](C(=O)N1CCC[C@H]1C(=O)O)[C@H](C)O`: the half-inhibitory concentration (IC50) in series [1] was 45.7 µM. In the case of `CC(C)C[C@H](NC(=O)[C@H](CC(N)=O)NC(=O)[C@H](Cc1c[nH]c2ccccc12)NC(=O)[C@H](Cc1ccc(O)cc1)NC(=O)[C@H](CCC(=O)O)NC(=O)[C@H](C)NC(=O)[C@H](Cc1ccccc1)NC(=O)[C@H](CO)NC(=O)[C@@H](N)[C@@H](C)O)C(=O)N[C@@H](CC(C)C)C(=O)N[C@H](Cc1ccccc1)C(=O)N1CCC[C@H]1C(=O)O`, the IC50 in series [1] was determined as 54.3 µM. For the same molecule, the Drug metabolism entry at Cathepsin G [2] was “Metabolite_Detected”. As to `CC(C)C[C@H](NC(=O)[C@H](CC(N)=O)NC(=O)[C@H](Cc1c[nH]c2ccccc12)NC(=O)[C@H](Cc1ccc(O)cc1)NC(=O)[C@H](CCC(=O)O)NC(=O)[C@H](C)NC(=O)[C@H](Cc1ccccc1)NC(=O)[C@H](CO)NC(=O)[C@@H](N)[C@@H](C)O)C(=O)N[C@@H](CC(C)C)C(=O)N[C@H](Cc1cnc[nH]1)C(=O)N1CCC[C@H]1C(=O)O`, the concentration for half-maximal inhibition (IC50) in series [1] was found to be 43.5 µM. In the case of H-TSFAEYWNLLSP-OH, the IC50 in series [1] stood at 67.6 µM. Further, the Drug metabolism entry on Cathepsin G [3] is recorded as “Metabolite_Detected”.

Source of the values: ChEMBL document CHEMBL4043224, “d-Amino acid mutation of PMI as potent dual peptide inhibitors of p53-MDM2/MDMX interactions” (Bioorg Med Chem Lett, 2017).
